Assay results: patent US9938261B2, “Heterocyclic compounds and methods of use thereof” (AMBIT BIOSCIENCES CORPORATION, priority 2011, dated 2018)
Read-outs that look alike come from different tables or passages of the source.

Experiments:
[1] = biological target: kinase panel containing either 386 or 392 distinct kinases; assay: Kinase selectivity score S10 from competition binding panel
Method: Competition binding assays used herein were developed, validated and performed as described in Fabian et al., Nature Biotechnology 2005, 23, 329-336. Kinases were produced as fusions to T7 phage (See, Fabian et al. or WO04/015142) or alternatively, the kinases were expressed in HEK-293 cells and subsequently tagged with DNA for PCR detection (See, WO08/005310). For the binding assays, streptavidin-coated magnetic beads were treated with biotinylated affinity ligands for 30 min at room temperature to generate affinity resins. The liganded beads were blocked with excess biotin and washed with blocking buffer (SeaBlock (Pierce), 1% BSA, 0.05% Tween 20, 1 mM DTT) to remove unbound ligand and to reduce non-specific binding. Binding reactions were assembled by combining kinase, liganded affinity beads, and test compounds in 1× binding buffer (20% SeaBlock, 0.17×PBS, 0.05% Tween 20, 6 mM DTT). Test compounds were prepared as 100× stocks in DMSO and diluted into the aqueous environment. Kds were determined using an eleven point threefold serial dilutions. DMSO or control compounds were was added to control assays lacking a test compound. Primary screen assays were performed in polypropylene 384-well plates in a final volume of 20-40 μL, while Kd determinations were performed in polystyrene 96-well plates in a final volume of 135 μL. The assay plates were incubated at room temperature with shaking for 1 hour to allow the binding reactions to reach equilibrium, and the affinity beads were washed extensively with wash buffer (1×PBS, 0.05% Tween 20) to remove unbound protein. The beads were then resuspended in elution buffer (1×PBS, 0.05% Tween […] non-biotinylated affinity ligand) and incubated at room temperature with shaking for 30 min. The kinase concentration in the eluates was measured by quantitative PCR.
A selectivity score (S10) is a quantitative measure of selectivity of a compound against a panel of kinases. An S10 was calculated for a compound by dividing the number of kinases found to have a percent of control (DMSO) less than 10 by the total number of distinct kinases tested (excluding mutant variants). Percent of control (POC) is calculated by subtracting the signal of the control compound (POC=0) from the signal of the test compound and dividing the outcome by the signal of DMSO (POC=100) minus the signal of the control compound. For the compounds disclosed herein, S10 scores were obtained by testing the compounds at 10 μM concentration in a kinase panel containing either 386 or 392 distinct kinases.

[2] = biological target: T1, CSF1R (Homo sapiens, UniProt P07333); assay: Competition binding assay, CSF1R Kd; parameters: made in house
Outline: (§1)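 Read-out is quantitative PCR of kinase recovered from affinity beads after competition with test compound. Binding reached equilibrium over 1 hour at room temperature; Kd values come from eleven-point threefold serial dilutions.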

[3] = biological target: T1, CSF1R; assay: HEK293 CSF1R phosphorylation MSD assay; assay type: cell-based; parameters: expressed in transfected cells; host or cells: HEK293; conditions: read-out: HEK293 pCSF1R M-CSF MSD:IC50
Outline: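 HEK293 cells expressing CSF1R-FKBP were pretreated 2 h at 37° C with 9 half-log concentrations of compound (0.5% DMSO final), then stimulated 5 min with 50 ng/mL human M-CSF. Lysates captured on biotin-FK506 plates; phosphotyrosine detected by MSD electrochemiluminescence. IC50 versus DMSO, averaged from duplicate plates.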

[4] = biological target: T2, PDGFRβ (Homo sapiens, UniProt P09619); assay: Competition binding assay, PDGFRβ Kd
T2 construct: made in house
Outline: as §1

[5] = biological target: T3, KIT (Homo sapiens, UniProt P10721); assay: Competition binding assay, KIT Kd
T3 construct: made in house
Outline: as §1

[6] = compounds at 10 μM, 386 or 392 distinct kinases
[7] = 2 h compound, human M-CSF 50 ng/mL for 5 min
[8] = 10 μM, panel of 386 or 392 distinct kinases
[9] = HEK293 cells, M-CSF stimulated CSF1R phosphorylation, MSD

T1 sequence (P07333 20-972): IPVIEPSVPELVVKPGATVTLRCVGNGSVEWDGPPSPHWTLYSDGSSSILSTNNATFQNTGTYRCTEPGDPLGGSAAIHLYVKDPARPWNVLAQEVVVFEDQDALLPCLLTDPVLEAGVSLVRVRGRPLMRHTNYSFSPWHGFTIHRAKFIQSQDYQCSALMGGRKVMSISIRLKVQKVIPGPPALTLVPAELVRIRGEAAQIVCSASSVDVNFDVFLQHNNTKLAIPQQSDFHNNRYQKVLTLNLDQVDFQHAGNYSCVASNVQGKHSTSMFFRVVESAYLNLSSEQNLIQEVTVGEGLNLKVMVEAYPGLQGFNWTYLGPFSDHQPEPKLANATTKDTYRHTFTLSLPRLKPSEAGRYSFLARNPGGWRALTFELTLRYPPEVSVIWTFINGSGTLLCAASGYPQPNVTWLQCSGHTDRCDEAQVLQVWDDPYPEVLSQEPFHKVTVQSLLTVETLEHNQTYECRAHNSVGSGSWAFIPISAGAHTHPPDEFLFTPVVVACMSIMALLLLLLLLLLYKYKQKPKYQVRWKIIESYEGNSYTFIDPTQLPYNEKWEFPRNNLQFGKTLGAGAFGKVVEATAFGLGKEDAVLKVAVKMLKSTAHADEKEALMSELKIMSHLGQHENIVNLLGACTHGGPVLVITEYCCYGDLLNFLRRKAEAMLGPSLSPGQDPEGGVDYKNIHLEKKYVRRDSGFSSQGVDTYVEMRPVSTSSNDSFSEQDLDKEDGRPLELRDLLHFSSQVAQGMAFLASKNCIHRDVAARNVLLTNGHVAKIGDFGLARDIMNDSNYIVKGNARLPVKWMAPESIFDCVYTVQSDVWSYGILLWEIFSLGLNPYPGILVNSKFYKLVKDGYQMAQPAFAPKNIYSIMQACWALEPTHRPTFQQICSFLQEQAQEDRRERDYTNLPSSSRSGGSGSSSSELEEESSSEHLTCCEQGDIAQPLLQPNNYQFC
T2 sequence (P09619 33-1106): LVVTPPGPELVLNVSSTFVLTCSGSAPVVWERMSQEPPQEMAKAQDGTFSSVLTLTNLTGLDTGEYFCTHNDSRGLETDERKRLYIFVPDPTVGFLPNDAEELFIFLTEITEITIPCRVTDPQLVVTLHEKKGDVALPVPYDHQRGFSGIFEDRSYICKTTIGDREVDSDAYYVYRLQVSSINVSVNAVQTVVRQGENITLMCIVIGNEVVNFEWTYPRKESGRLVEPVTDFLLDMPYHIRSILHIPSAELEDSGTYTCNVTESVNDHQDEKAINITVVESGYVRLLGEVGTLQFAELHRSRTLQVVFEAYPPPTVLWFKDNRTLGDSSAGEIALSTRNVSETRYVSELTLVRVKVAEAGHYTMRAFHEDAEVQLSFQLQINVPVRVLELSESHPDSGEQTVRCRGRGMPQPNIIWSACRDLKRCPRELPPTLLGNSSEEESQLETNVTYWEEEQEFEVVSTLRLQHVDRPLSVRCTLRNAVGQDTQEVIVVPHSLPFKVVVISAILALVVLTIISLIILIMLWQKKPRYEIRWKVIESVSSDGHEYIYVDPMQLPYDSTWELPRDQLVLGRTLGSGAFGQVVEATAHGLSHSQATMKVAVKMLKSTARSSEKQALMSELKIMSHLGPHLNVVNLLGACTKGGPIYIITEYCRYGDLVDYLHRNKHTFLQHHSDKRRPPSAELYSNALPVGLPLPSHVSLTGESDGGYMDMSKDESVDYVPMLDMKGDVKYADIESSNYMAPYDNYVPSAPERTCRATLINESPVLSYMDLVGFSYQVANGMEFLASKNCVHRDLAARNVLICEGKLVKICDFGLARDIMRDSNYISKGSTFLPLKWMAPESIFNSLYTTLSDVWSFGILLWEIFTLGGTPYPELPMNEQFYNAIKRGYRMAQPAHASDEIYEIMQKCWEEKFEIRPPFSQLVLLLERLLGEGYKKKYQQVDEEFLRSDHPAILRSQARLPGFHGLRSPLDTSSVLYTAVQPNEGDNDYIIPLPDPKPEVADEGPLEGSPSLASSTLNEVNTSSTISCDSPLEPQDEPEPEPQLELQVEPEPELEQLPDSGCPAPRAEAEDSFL
T3 sequence (P10721 26-976): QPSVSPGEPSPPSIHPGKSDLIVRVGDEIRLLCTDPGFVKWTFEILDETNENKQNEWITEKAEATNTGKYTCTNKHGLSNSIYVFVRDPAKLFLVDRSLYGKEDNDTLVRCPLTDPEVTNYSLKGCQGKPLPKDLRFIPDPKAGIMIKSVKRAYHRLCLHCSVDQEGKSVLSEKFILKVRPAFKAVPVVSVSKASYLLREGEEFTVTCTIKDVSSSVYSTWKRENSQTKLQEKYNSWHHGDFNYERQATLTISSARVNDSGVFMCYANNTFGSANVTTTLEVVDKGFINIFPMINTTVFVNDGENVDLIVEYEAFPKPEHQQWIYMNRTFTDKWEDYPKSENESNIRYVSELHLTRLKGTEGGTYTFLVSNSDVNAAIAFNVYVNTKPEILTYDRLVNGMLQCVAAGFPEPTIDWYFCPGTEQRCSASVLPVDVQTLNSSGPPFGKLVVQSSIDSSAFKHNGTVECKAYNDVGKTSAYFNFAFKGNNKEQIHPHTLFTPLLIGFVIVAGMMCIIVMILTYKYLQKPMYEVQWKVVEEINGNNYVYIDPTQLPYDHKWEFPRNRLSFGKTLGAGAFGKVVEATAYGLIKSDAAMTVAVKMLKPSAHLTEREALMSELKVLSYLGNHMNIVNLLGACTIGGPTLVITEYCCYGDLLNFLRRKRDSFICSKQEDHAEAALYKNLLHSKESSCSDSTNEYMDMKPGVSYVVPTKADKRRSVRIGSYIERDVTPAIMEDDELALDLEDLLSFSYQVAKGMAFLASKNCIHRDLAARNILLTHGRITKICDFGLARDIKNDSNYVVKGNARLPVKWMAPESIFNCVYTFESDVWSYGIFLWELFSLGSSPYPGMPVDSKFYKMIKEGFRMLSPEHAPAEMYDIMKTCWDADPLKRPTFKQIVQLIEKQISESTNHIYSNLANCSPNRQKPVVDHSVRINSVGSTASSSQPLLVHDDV

Kinase specificity S(10) [1, 6] | Kd [2] [µM] | IC50 [3, 7] [µM] | Kd [4] [µM] | Kd [5] [µM] | Kinase specificity S(10) [1, 8] | Kd ([2]; competition binding) [µM] | IC50 [3, 9] [µM] | Kd ([4]; competition binding) [µM] | Kd ([5]; competition binding) [µM] | SMILES
C (C>0.02) | ≤ 0.005 | ≤ 0.05 | ≤ 0.05 | ≤ 0.1 |  |  |  |  |  | COc1cc2c(cc1-c1cnn(C)c1)ncn2Cc1ccc2nc(N[C@@H]3CCCC[C@H]3O)sc2c1 [Example 51, (1R,2R)-2-((6-((6-methoxy-5-(1-methyl-1H-pyrazol-4-yl)-1H-benzo[d]imidazol-1-yl)methyl)benzo[d]thiazol-2-yl)amino)cyclohexanol]
C (C>0.02) | ≤ 0.005 | ≤ 0.05 | 0.05 to 0.5 | ≤ 0.1 |  |  |  |  |  | COc1cc2ncn(Cc3ccc4nc(N[C@@H]5CCCC[C@H]5O)sc4c3)c2cc1-c1cnn(C)c1 [Example 52, (1R,2R)-2-((6-((5-methoxy-6-(1-methyl-1H-pyrazol-4-yl)-1H-benzo[d]imidazol-1-yl)methyl)benzo[d]thiazol-2-yl)amino)cyclohexanol]
C (C>0.02) | 0.005 to 0.02 | ≤ 0.05 | ≤ 0.05 | ≤ 0.1 |  |  |  |  |  | C#Cc1cnc2c(c1)ncn2Cc1ccc2nc(N[C@@H]3CCCC[C@H]3O)sc2c1 [Example 96, (1R,2R)-2-((6-((6-ethynyl-3H-imidazo[4,5-b]pyridin-3-yl)methyl)benzo[d]thiazol-2-yl)amino)cyclohexanol]
C (C>0.02) | ≤ 0.005 | ≤ 0.05 | ≤ 0.05 | ≤ 0.1 |  |  |  |  |  | COc1cc2ncn(Cc3ccc4nc(N[C@@H]5CCCCC[C@H]5O)sc4c3)c2cc1OC (racemic) [Example 50, (±)-2-((6-((5,6-dimethoxy-1H-benzo[d]imidazol-1-yl)methyl)benzo[d]thiazol-2-yl)amino)cycloheptanol]
C (C>0.02) | ≤ 0.005 | 0.05 to 0.2 | ≤ 0.05 | ≤ 0.1 |  |  |  |  |  | OCC1(CNc2nc3ccc(Cn4cnc5cccnc54)cc3s2)CCCCC1 [Example 76, (1-(((6-((3H-imidazo[4,5-b]pyridin-3-yl)methyl)benzo[d]thiazol-2-yl)amino)methyl)cyclohexyl)methanol]
A (A≤0.01) | 0.005 to 0.02 | 0.05 to 0.2 | 0.05 to 0.5 | 0.5 to 2 |  |  |  |  |  | OC[C@@H]1CCCC[C@H]1Nc1nc2ccc(Cn3cnc4cccnc43)cc2s1 [Example 66, ((1R,2R)-2-((6-((3H-imidazo[4,5-b]pyridin-3-yl)methyl)benzo[d]thiazol-2-yl)amino)cyclohexyl)methanol]
 |  |  |  |  | A (A≤0.01) | 0.005 to 0.02 | 0.05 to 0.2 | 0.05 to 0.5 | 0.1 to 0.5 | CC(=NO)c1ccn2c(Cc3ccc4nc(N[C@@H]5CCCC[C@H]5O)sc4c3)cnc2c1 [Example 202, 1-(3-((2-(((1R,2R)-2-hydroxycyclohexyl)amino)benzo[d]thiazol-6-yl)methyl)imidazo[1,2-a]pyridin-7-yl)ethanone oxime]
A (A≤0.01) | 0.02 to 0.05 | 0.05 to 0.2 | 0.05 to 0.5 | 0.1 to 0.5 |  |  |  |  |  | O=C1CCCC[C@H]1Nc1nc2ccc(Cn3cnc4cccnc43)cc2s1 [Example 54, (R)-2-((6-((3H-imidazo[4,5-b]pyridin-3-yl)methyl)benzo[d]thiazol-2-yl)amino)cyclohexanone]
C (C>0.02) | ≤ 0.005 | ≤ 0.05 | ≤ 0.05 | ≤ 0.1 |  |  |  |  |  | COc1cc2ncn(Cc3ccc4nc(NCC5CCCCC5)oc4c3)c2cc1OC [Example 35, N-(cyclohexylmethyl)-6-((5,6-dimethoxy-1H-benzo[d]imidazol-1-yl)methyl)benzo[d]oxazol-2-amine]
 |  |  |  |  | B (0.01<B≤0.02) | ≤ 0.005 | ≤ 0.05 | 0.05 to 0.5 | 0.1 to 0.5 | O[C@@H]1CCCC[C@H]1Nc1nc2ccc(Cc3cnc4cc(-n5ccnc5)ccn34)cc2s1 [Example 214, (1R,2R)-2-((6-((7-(1H-imidazol-1-yl)imidazo[1,2-a]pyridin-3-yl)methyl)benzo[d]thiazol-2-yl)amino)cyclohexanol]
B (0.01<B≤0.02) | 0.02 to 0.05 | > 0.5 | 0.05 to 0.5 | 0.1 to 0.5 |  |  |  |  |  | O=C(O)c1cnc2c(c1)ncn2Cc1ccc2nc(N[C@@H]3CCCC[C@H]3O)sc2c1 [Example 81, 3-((2-(((1R,2R)-2-hydroxycyclohexyl)amino)benzo[d]thiazol-6-yl)methyl)-3H-imidazo[4,5-b]pyridine-6-carboxylic acid]
A (A≤0.01) | 0.005 to 0.02 | 0.05 to 0.2 | 0.5 to 2 | 0.5 to 2 |  |  |  |  |  | COc1ccn2c(Cc3ccc4nc(N[C@@H]5CCCC[C@H]5O)sc4c3)cnc2c1 [Example 44, (1R,2R)-2-((6-((7-methoxyimidazo[1,2-a]pyridin-3-yl)methyl)benzo[d]thiazol-2-yl)amino)cyclohexanol]
 |  |  |  |  | B (0.01<B≤0.02) | 0.005 to 0.02 | 0.05 to 0.2 | ≤ 0.05 | 0.1 to 0.5 | Fc1cnc2c(c1)ncn2Cc1ccc2nc(N[C@@H]3CCCC[C@@H]3Cl)sc2c1 [Example 219, N-((1R,2S)-2-chlorocyclohexyl)-6-((6-fluoro-3H-imidazo[4,5-b]pyridin-3-yl)methyl)benzo[d]thiazol-2-amine]
B (0.01<B≤0.02) | 0.02 to 0.05 | 0.05 to 0.2 | 0.05 to 0.5 | 0.5 to 2 |  |  |  |  |  | CC(=O)Nc1cn(Cc2ccc3nc(N[C@@H]4CCCC[C@H]4O)sc3c2)cn1 [Example 101, N-(1-((2-(((1R,2R)-2-hydroxycyclohexyl)amino)benzo[d]thiazol-6-yl)methyl)-1H-imidazol-4-yl)acetamide]
C (C>0.02) | 0.005 to 0.02 | 0.2 to 0.5 | ≤ 0.05 | ≤ 0.1 |  |  |  |  |  | OC[C@H](Nc1nc2ccc(Cn3cnc4cccnc43)cc2s1)C1CCCCC1 [Example 64, (R)-2-((6-((3H-imidazo[4,5-b]pyridin-3-yl)methyl)benzo[d]thiazol-2-yl)amino)-2-cyclohexylethanol]
 |  |  |  |  | A (A≤0.01) | 0.02 to 0.05 | > 0.5 | 0.5 to 2 | 0.5 to 2 | CS(=O)(=O)c1ccc2ncn(Cc3ccc4nc(N[C@@H]5CCCC[C@H]5O)sc4c3)c2n1 [Example 106, (1R,2R)-2-((6-((5-(methylsulfonyl)-3H-imidazo[4,5-b]pyridin-3-yl)methyl)benzo[d]thiazol-2-yl)amino)cyclohexanol]
B (0.01<B≤0.02) | ≤ 0.005 | ≤ 0.05 | ≤ 0.05 | ≤ 0.1 |  |  |  |  |  | O[C@@H]1CCCC[C@H]1Nc1nc2ccc(Cn3cnc4cc(-c5cccnc5)cnc43)cc2s1 [Example 40, (1R,2R)-2-((6-((6-(pyridin-3-yl)-3H-imidazo[4,5-b]pyridin-3-yl)methyl)benzo[d]thiazol-2-yl)amino)cyclohexanol]
C (C>0.02) | ≤ 0.005 | ≤ 0.05 | ≤ 0.05 | ≤ 0.1 |  |  |  |  |  | Cn1cc(-c2cnc3c(c2)ncn3Cc2ccc3nc(N[C@@H]4CCCC[C@H]4O)sc3c2)cn1 [Example 39, (1R,2R)-2-((6-((6-(1-methyl-1H-pyrazol-4-yl)-3H-imidazo[4,5-b]pyridin-3-yl)methyl)benzo[d]thiazol-2-yl)amino)cyclohexanol]
